Measurements from patent US9532519B2, “Plant growth regulator and use thereof” (Japan Science and Technology Agency, priority 2006, dated 2017).

Assays:
Arabidopsis = assay: Influence 1 of treatment condition on seeds of Arabidopsis (concentration and duration from sowing); format: in vivo
Description: Seeds of Arabidopsis were sown in pods filled with soil immersed in 0 mM-, 0.01 mM-, 0.2 mM-, 1 mM-, 2 mM-, and 5 mM-GSSG.
Arabidopsis was cultivated under the same conditions as those described in <1. Influence of oxidized glutathione on growth of Arabidopsis> except for the above condition.
The seed weight per one pod, obtained from Arabidopsis thus cultivated (three plants in each pod), was measured. The results of the measurement are shown in FIGS. 10-12. n is the number of plants that can be finally harvested.

Sweet corn = assay: Effect 3 of oxidized glutathione on productivity of corn (foliar spray); format: in vivo; settings: GSSG sprayed to a stem and leaves four times in two weeks after six weeks from the sowing
Description: Sweet corn was cultivated under the same conditions as those of <15.
The amount of fruits and the amount of biomass of ground parts of the plant thus obtained were measured with respect to each plant and harvest index was calculated.

[1] = test system: Soybean (breed: Tsurumusume) and soybean (breed; Toyomusume); assay: Influence of oxidized glutathione on growth and yield of seeds of soybean, agricultural field; format: in vivo; settings: 0.5 mM-GSSG, 50 mL per individual two times a week at base of stem; each breed
Description: The soybean was fertilized with a nitrogen fertilizer that was KUMIAI RIN […] S604 in a ratio of 20 kgN per 10 are, and was additionally fertilized with 5 kgN 3 weeks later.
Further, in a GSSG-treated management zone, a 0.5 mM-GSSG solution was given to the base of a stem (see the arrow in FIG. 21) in the amount of 50 mL per one individual two times a week in such a manner that the solution flowed along the stem.
In a case where it was likely to rain, the GSSG solution was supplied to the plant after the rain. Similarly, in a case of watering, the GSSG solution was supplied to the plant after the watering. When the harvest time of the plant of the control (i.e. normal nitrogen management zone) was coming, supply of the GSSG solution to the plant in the GSSG-treated management zone was stopped.
The seed weight, the amount of biomass, and the harvest index of the plant thus obtained in the GSSG-treated management zone, each relative to that of the plant in the normal nitrogen management zone, were measured.

[2] = test system: transformants of Arabidopsis to which a gene encoding gFBA was introduced and the wild-type Arabidopsis (Columbia; Col); settings: in vivo
rice (Akita 63) = assay: Rice hydroponics, GSSG in additional fertilization, number of ears; format: in vivo; settings: GSSG 0.2 gN per test location (0.1 m2) in additional fertilization
Description: In particular, the method is effective for a plant such as gramineae whose yield is greatly dependent on tillers.

[3] = test system: Sweet corn (Canberra 90, TAKII & CO., LTD.); assay: Effect 1 of oxidized glutathione on productivity of corn; format: in vivo; settings: 200 mL of 0.5 mM-GSSG two times a week for 12 weeks at root
Description: Sweet corn (Canberra 90, TAKII & CO., LTD.) was sown, and then transferred to a hydroponics pot ( 1/2000 are) filled with a culture soil (6 L of vermiculite as the lower layer, 3 L of The Kureha Ikubyou Baido soil as the middle layer, and 3 L of vermiculite as the upper layer) two weeks later and additionally fertilized with 3 g of KUMIAI RIN […] S604 four weeks later and six weeks later. Further, the GSSG-treated plant was given 200 mL of 0.5 mM-GSSG two times a week for 12 weeks after germination at its root.

Arabidopsis seeds = assay: Germination rate (ripeness) of seeds from Arabidopsis cultivated with oxidized glutathione; format: in vivo
Description: Ripeness of seeds obtained from Arabidopsis cultivated with oxidized glutathione was examined.

eustoma = assay: Effect on promoting growth of roots of eustoma; format: in vivo; settings: MS culture medium containing 1 mM-GSSG or GSH, grown 1 month, transferred to planter
Description: In the planter, 2 parts of vermiculite, 1 part of The Kureha Ikubyou Baido soil, and 1 part of vermiculite were layered as a lower layer, a middle layer, and an upper layer, respectively, and the above plants were transferred thereto.

[4] = test system: Sweet corn (Canberra 90, TAKII & CO., LTD.); assay: Effect 2 of oxidized glutathione on productivity of corn (time of treatment); format: in vivo
Description: Sweet corn (Canberra 90, TAKII & CO., LTD.) was sown, and then transferred to a hydroponics pot ( 1/2000 are) filled with a culture soil (6 L of vermiculite as the lower layer, 3 L of The Kureha Ikubyou Baido soil as the middle layer, and 3 L of vermiculite as the upper layer) two weeks later and additionally fertilized with 3 g of KUMIAI RIN […] S604 four weeks later and six weeks later.
Further, the GSSG-treated plant was given 50 mL of 0.2 mM-GSSG solution four times in 2 weeks (two times a week) after 2 weeks, 4 weeks, or 6 weeks had elapsed from the sowing. Further, there were prepared a management zone to which 0.2 mM-GSSG was given 22 times in total for 11 weeks after 2 weeks had elapsed from the sowing and a management zone to which 0.2 mM-GSSG was not given.
The amount of fruits and the amount of biomass of ground parts of each plant were measured and harvest index was calculated.

[5] = test system: transformants of Arabidopsis to which a gene encoding gFBA was introduced and wild-type Arabidopsis (Columbia; Col); settings: in vivo
[6] = test system: Rose saplings (breed; JJ scarlet and JJ apricot); assay: Effect 2 on promoting growth of sprout and floral bud of rose (JJ scarlet and JJ apricot); format: in vivo; settings: 50 mL of 0.5 mM-GSSG two times a week; fourth and eighth day from the fertilization
Description: Rose saplings (breed; JJ scarlet and JJ apricot) were purchased at a hardware store and cultivated in pods for rice hydroponics. The rose saplings were fertilized with 50 mL of a 0.5 mM-GSSG solution in the form of a liquid fertilizer two times a week.
In (a)-(d) of FIG. 35, the breeds of three plants are JJ scarlet, JJ apricot, and JJ scarlet, respectively from the left.

[7] = test system: Arabidopsis GA synthesis mutants ga20ox1; assay: Effect of oxidized glutathione on gibberellin synthesis mutant; format: in vivo; settings: GSSG (1 mM) from sowing
Description: In the drawing, “Col” indicates a wild-type Columbia, and “ga20ox1” indicates a mutant in which T-DNA is inserted into a GA20 oxidase gene that codes an enzyme of a GA biosynthesis. “ga20ox1-1” and “ga20ox1-2” are independent mutants in which T-DNA are inserted into different portions.

[8] = 0.2 mM-GSSG, eleven weeks after two weeks had elapsed from the sowing

## oxidized glutathione [GSSG]
Arabidopsis; supplying GSSG for a long time
  seed weight per pod: effective concentration: GSSG with low concentration is more effective than GSSG with high concentration
Arabidopsis; supplying GSSG for a short time
  seed weight per pod: effective concentration: GSSG with high concentration is more desirable
Sweet corn
  amount of fruits, amount of biomass of ground parts and harvest index of each plant: increased the amount of fruits, the amount of biomass of ground parts, and the harvest index
[1]
  amount of biomass vs normal nitrogen management zone: higher
  harvest index vs normal nitrogen management zone: higher
  seed weight vs normal nitrogen management zone: higher
[2]
  harvest index, whole amount of biomass and seed weight: increased any of the harvest index, the whole amount of biomass, and the seed weight
Rice (Akita 63)
  number of ears relative to plant cultivated with only water: approximately 1.4 times
[3]
  amount of biomass of the portions other than the fruits vs not treated: no great difference
  amounts of biomass of the fruits and ground parts: significantly high
  formation of floral buds vs not treated: promotion of formation of floral buds
  harvest index vs not treated: significantly high harvest index
  number of edible seeds vs not treated: more number of edible seeds
  size of fruits vs not treated: larger
  size of seeds vs not treated: larger
Arabidopsis seeds; 2 days after the sowing
  germination rate: significantly high
Arabidopsis seeds; 7 days after the sowing
  germination rate, difference from seeds of plants cultivated normally: almost no difference
Arabidopsis seeds; seeds sown in 1/2 MS culture media
  germination speed of seeds of treated plants vs plants cultivated normally: germinated faster
eustoma
  growth of roots vs plants not treated with GSSG: significant growth of roots
[4]; [8]
  amount of fruits and amount of biomass of ground parts per plant vs not treated: a larger amount of fruits and a larger amount of biomass of ground parts
  harvest index vs not treated: great increase in harvest index
[4]; 0.2 mM-GSSG, two weeks after four weeks had elapsed from the sowing
  amount of fruits and amount of biomass of ground parts per plant vs not treated: a larger amount of fruits and a larger amount of biomass of ground parts
[4]; 0.2 mM-GSSG, two weeks after six weeks had elapsed from the sowing
  amount of fruits and amount of biomass of ground parts per plant vs not treated: a smaller amount of fruits and a smaller amount of biomass of ground parts
[4]; 50 mL of 0.2 mM-GSSG, two weeks after four weeks had elapsed from the sowing
  harvest index vs not treated: great increase in harvest index
[4]; 50 mL of 0.2 mM-GSSG, two weeks after six weeks had elapsed from the sowing
  harvest index vs not treated: larger harvest index
[5]
  ability to increase harvest index and crop yields, oxidized vs reduced glutathione: higher ability to increase the harvest index and to significantly increase crop yields than reduced glutathione
[6]
  growth of sprout vs not treated: promoted growth of sprout
[7]
  seed weight: significantly increased
[7]; 8 weeks after the sowing
  number of flowers (sheaths): also increased
  number of lateral shoots vs water: significantly increased
